The results in this text go back to PMC7484352 (Archives of biochemistry and biophysics, 2020).

The target of the experiment is T1, bDAD (DAD V1M) (Burkholderia sp. AZ11, UniProt F7J5X4, V1M).
T1 sequence (F7J5X4 1-177): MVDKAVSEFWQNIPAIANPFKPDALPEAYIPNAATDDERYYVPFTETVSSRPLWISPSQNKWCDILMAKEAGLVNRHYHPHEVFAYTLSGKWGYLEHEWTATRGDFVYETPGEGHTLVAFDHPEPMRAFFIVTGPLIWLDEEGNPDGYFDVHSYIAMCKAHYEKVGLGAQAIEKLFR
Put plainly: UV absorbance at […] nm, DHA consumption. Type of experiment: biochemical.

In general, Ki refers to the dissociation constant of the complex between target and ligand, obtained from inhibition or displacement. Low readings indicate higher affinity, high ones lower affinity. Turning to `O=C(O)c1ccc(O)cc1` [4HB, 4-hydroxybenzoic acid], the Ki was 1100 ± 400 µM.
